The test system of the assay is APO-GDH. Nature of the assay: Homogeneous optical and electrochemical assay with GDH and PQQ. The format is biochemical. The following applies: APO-GDH 1 μM, 2 mM CaCl2, 40 mM glucose, 50 μM PMS, redox indicator (DCIP, resazurin or thionine). The protocol: Homogeneous Optical and Electrochemical Assay for DNA with GDH and PQQ (See FIG. 8) The PQQ solutions (variable concentrations) included APO-GDH (1 μM), 2 mM CaCl2, and 40 mM Glucose. 50 μM PMS and a redox indicator (0.1-0.2 mM DCIP, 0.025 mM resazurin, or 0.05 mM thionine) were also added. PQQ at 0.1 nM was detectable.
In general terms: Alamar Blue is a resazurin reagent that responds to reducing activity.

These results are taken from patent US20060199241A1, “Electrochemically and optically monitoring cleaving enzyme activity” (priority 2005, published 2006).

For the compound `O=C(O)c1cc(C(=O)O)c2c(n1)C(=O)C(=O)c1cc(C(=O)O)[nH]c1-2` [PQQ, pyrroloquinoline quinone], the “PQQ concentration detectable (GDH enzyme activity)” value is recorded as 0.1 nM.
